Measured values reported in patent US20130317222A1, “SOLID FORMS OF GYRASE INHIBITOR (R)-1-ETHYL-3-[5-[2-(1-HYDROXY-1-METHYL-ETHYL)PYRIMIDIN-5-YL]-7-(TETRAHYDROFURAN-2-YL]-1H-BENZIMIDAZOL-2-YL]UREA” (Vertex Pharmaceuticals Incorporated, priority 2011, published 2013).
Where a name gives a salt, the structure may show the parent alone.

Assays:
Streptococcus pneumoniae = experiment: MIC, micro dilution broth method (Protocol 1); format: cell-based
Moraxella catarrhalis = experiment: MIC against Gram negatives, microdilution broth method (Protocol 2)
Bacillus cereus = experiment: MIC, micro dilution broth method (Protocol 1); format: cell-based
[1] = system: Mycobacterium tuberculosis; experiment: Mycobacterium tuberculosis Serum Shift MIC Assay (Protocol 5); format: cell-based
Text: Protocol #5. Protocol for Mycobacterium tuberculosis Serum Shift MIC Assay
Media Prep: • 1. […] It was important that all media and supplements were sterilized prior to MICs. • 2. Prepared all media below and inoculated as described in next section. Tested all compounds against Mtb using each media. • a. 7H9+0.2% glycerol+10% OADC (“standard” MIC media). • b. 7H9+0.2% glycerol+2 g/L dextrose+0.85 g/L NaCl+0.003 g/L catalase (0% FBS). • c. 2×7H9+0.2% glycerol+2 g/L dextrose+0.85 g/L NaCl+0.003 g/L catalase combined with equal volume Fetal Bovine Serum (50% FBS).
Inoculum Prep: • 1. […] Typically plates were two to three weeks of age when used for this assay due to the slow growth of this organism in culture. • 2. Vortexed well, then sonicated in water bath for 30 sec providing a suspension of ˜10^8 cells/ml. […] Prepared inoculum in each of the three media formulations by diluting the BBL Prompt suspension 1/200 (for example: transferred 0.2 ml of cells to 40 ml of medium) to obtain a starting cell density of ˜10^6 cells/ml. • 4.
Drug Dilutions, Inoculation, MIC Determination: • 1. […]
After 24 hours the fluorescence of each well was measured at Excitation 492 nm, Emission 595 nm.
Percent inhibition by a given compound was calculated as follows: Percent inhibition=100−([well fluorescence-average background fluorescence]/[DMSO control−average background fluorescence]×100).

Fusobacterium spp. = experiment: MIC, agar dilution method (Protocol 3); format: cell-based; conditions: 16 isolates tested
[2] = system: β-haemolytic streptococci (Groups A, B, C and G); experiment: MIC, micro dilution broth method (Protocol 1); format: cell-based; conditions: 28 isolates tested
Pseudomonas aeruginosa = experiment: MIC against Gram negatives, microdilution broth method (Protocol 2)
Escherichia coli = experiment: as above
Neisseria gonorrhoeae = experiment: MIC, agar dilution method (Protocol 3); format: cell-based
Protocol: (§1) Plate Pouring: • 1. Prepared 100× drug stocks of each test compound as described in Table 1A. Used a 15 mL centrifuge tube, added 100 uL of each drug stock to 10 mL of molten agar (cooled to 55° C. in water bath). Mixed by inverting tube 2-3× then pour into individually labeled 60×15 mm Petri dish. • 2. […] Poured 4 drug free plates: 2 as positive control, 2 as aerobic control. • 4. Allowed plates to dry. Used same day or stored overnight at RT or stored up to 3 days at 4° C. • 5. Plates were labeled accordingly for drug concentration and strain placement. Plate Inoculation (Performed in Biosafety Cabinet): • 1. Streaked each strain onto individual agar plates as described above. Incubated for required time and environmental condition (i.e. anaerobic, microaerophilic, etc). • 2. Used direct colony suspension method to suspend loopfuls of freshly streaked cells into 4 mL 0.9% […] and vortexed. • 3. Adjusted suspension to O.D.600 0.05 (5×10e7 cfu/mL). Vortexed to mix. • 4. Transferred 0.2 mL of adjusted, mixed cultures to a 96 well plate. When ≦5 strains were tested, all strains were lined together in a single row. When testing >5 strains, transfered strains into plate with no more that 5 strains in a single row. This was necessary to fit on the small plates. • 5. […] The former and latter served as growth and inoculation controls. Incubated one plate from each set of drug-free controls under required atmospheric conditions with MIC plates and one set aerobically to test for contamination with aerobic bacteria. Aerobic culture was negative for growth when working with strict anaerobe or microaerophilic strain. Some growth was visible with N. gonorrhoeae. • 6. Allowed inoculum to dry (for as short a time as necessary), then placed upside down in GasPak with appropriate number of sachets and incubate. • 7. Neisseria spp. were incubated at 37° C. in a5% CO2 environment for 24 h. MIC Determination: Examined the test plates after the correct incubation time and read the MIC endpoint at the concentration where a marked reduction occurred in the appearance of growth on the test plate as compared to that of growth on the positive control plates. [table]

Neisseria meningitidis = experiment: MIC, agar dilution method (Protocol 3); format: cell-based; conditions: 12 isolates tested
Protocol: as §1

Staphylococcus aureus = experiment: MIC, micro dilution broth method (Protocol 1); format: cell-based
Proteus mirabilis = experiment: MIC against Gram negatives, microdilution broth method (Protocol 2)
M. tuberculosis = experiment: MIC determination procedure for Mycobacterium species (Protocol 4); format: cell-based
Enterobacter cloacae = experiment: MIC against Gram negatives, microdilution broth method (Protocol 2)
[3] = system: Staphylococcus epidermidis; experiment: MIC, micro dilution broth method (Protocol 1); format: cell-based; conditions: Staphlococcus epidermidis, 35 isolates tested
Peptostreptococcus spp. = experiment: MIC, agar dilution method (Protocol 3); format: cell-based; conditions: 11 isolates tested
Enterococcus faecalis = experiment: MIC, micro dilution broth method (Protocol 1); format: cell-based
Bacteroides fragilis = experiment: MIC, agar dilution method (Protocol 3); format: cell-based; conditions: 25 isolates tested
Prevotella spp. = experiment: MIC, agar dilution method (Protocol 3); format: cell-based; conditions: 13 isolates tested
Haemophilus influenzae = experiment: MIC against Gram negatives, microdilution broth method (Protocol 2); format: cell-based
Text: The specific protocols used were as follows:
Drug Dilutions, Inoculation, MIC Determination: • 1. […] All MICs were done in duplicate. • 6.

Mycobacterium avium = experiment: MIC determination procedure for Mycobacterium species (Protocol 4); format: cell-based
Clostridium difficile = experiment: MIC, agar dilution method (Protocol 3); format: cell-based
N. asteroids = experiment: MIC determination procedure for Mycobacterium species (Protocol 4); format: cell-based; conditions: N. asteroids 2039
Clostridium perfringens = experiment: microbe, parasite or virus in culture; format: cell-based
Enterococcus faecium = experiment: MIC, micro dilution broth method (Protocol 1); format: cell-based
[4] = system: Bacteroides and Parabacter spp.; experiment: MIC, agar dilution method (Protocol 3); format: cell-based; conditions: 26 isolates tested
N. nova = experiment: MIC determination procedure for Mycobacterium species (Protocol 4); format: cell-based; conditions: N. nova 10
Bacillus subtilis = experiment: MIC, micro dilution broth method (Protocol 1); format: cell-based
Klebsiella pneumoniae = experiment: MIC against Gram negatives, microdilution broth method (Protocol 2)
Acinetobacter baumannii = experiment: as above
Nocardia caviae = experiment: MIC determination procedure for Mycobacterium species (Protocol 4); format: cell-based; conditions: Nocardia caviae 2497
[5] = Streptococcus pneumoniae, 67 isolates tested
[6] = M. tuberculosis Erdman ATCC 35801
[7] = Neisseria gonorrhoeae, 13 isolates tested
[8] = Staphylococcus aureus, 67 isolates tested
[9] = Enterococcus faecalis, 34 isolates tested
[10] = Haemophilus influenzae, 55 isolates tested

`CCNC(=O)Nc1nc2cc(-c3cnc(C(C)(C)O)nc3)cc([C@H]3CCCO3)c2[nH]1` [Compound 13, methanesulfonic acid salt of 1-ethyl-3-[5-[2-(1-hydroxy-1-methyl-ethyl)pyrimidin-5-yl]-7-[(2R)-tetrahydrofuran-2-yl]-1H-benzimidazol-2-yl]urea] was tested, and the MIC (Streptococcus pneumoniae; Streptococcus pneumoniae ATCC 10015, with Laked Horse Blood) was 0.022 µg/mL, the MIC90 (Streptococcus pneumoniae; [5]) was 0.06 µg/mL and the “MIC Range” value (Streptococcus pneumoniae; [5]) was 0.015 to 0.06 µg/mL. For the same compound, the MIC90 (Moraxella catarrhalis) was 0.12 µg/mL, the “MIC Range” value (Moraxella catarrhalis; 26 isolates tested, Protocol 2) was 0.015 to 0.12 µg/mL and the MIC (Bacillus cereus; Bacillus cereus ATCC 10987) was 0.5 µg/mL. For the same compound, the MIC (Bacillus cereus; Bacillus cereus ATCC 14579) was 0.5 µg/mL, the MIC [1, 6] was 0.045 µg/mL and the MIC ([1]; M. tuberculosis Erdman ATCC 35801 with Mouse Serum) was 2 µg/mL. For the same compound, the MIC90 (Fusobacterium spp.) was 2 µg/mL, the “MIC Range” value (Fusobacterium spp.) was 1 to 4 µg/mL and the MIC90 [2] was 0.25 µg/mL. The “MIC Range” value [2] was 0.06 to 0.5 µg/mL, the MIC90 (Pseudomonas aeruginosa) was over 8 µg/mL and the MIC90 (Escherichia coli) was over 8 µg/mL. The MIC (Neisseria gonorrhoeae; Neisseria gonorrhoeae ATCC 35541) was 1.3 µg/mL, the MIC (Neisseria gonorrhoeae; Neisseria gonorrhoeae ATCC 49226) was 2.3 µg/mL and the MIC90 (Neisseria gonorrhoeae; [7]) was 1 µg/mL. For the same compound, the “MIC Range” value (Neisseria gonorrhoeae; [7]) was 0.5 to 1 µg/mL, the MIC90 (Neisseria meningitidis) was 0.12 µg/mL and the “MIC Range” value (Neisseria meningitidis) was 0.015 to 0.25 µg/mL. The MIC (Staphylococcus aureus; Staphylococcus aureus ATCC 29213) was 0.13 µg/mL, the MIC (Staphylococcus aureus; Staphylococcus aureus ATCC 29213 GyrB T173I) was 1.29 µg/mL and the MIC (Staphylococcus aureus; Staphylococcus aureus ATCC 29213 with Human Serum) was 0.31 µg/mL. For the same compound, the MIC (Staphylococcus aureus; Staphylococcus aureus ATCC 29213 with Mouse Serum) was 2 µg/mL, the MIC (Staphylococcus aureus; Staphylococcus aureus ATCC 29213 with Rat Serum) was 0.53 µg/mL and the MIC90 (Staphylococcus aureus; [8]) was 0.25 µg/mL. The “MIC Range” value (Staphylococcus aureus; [8]) was 0.03 to 0.5 µg/mL, the MIC90 (Proteus mirabilis) was over 8 µg/mL and the MIC (M. tuberculosis; [6]) was 0.25 µg/mL. For the same compound, the MIC (M. tuberculosis; M. tuberculosis H37Rv ATCC 25618) was 0.37 µg/mL, the MIC90 (Enterobacter cloacae) was over 8 µg/mL and the “MIC Range” value [3] was 0.03 to 0.25 µg/mL. The MIC90 ([3]; Staphylococcus epidermidis) was 0.12 µg/mL, the MIC90 (Peptostreptococcus spp.) was over 16 µg/mL and the MIC (Enterococcus faecalis; Enterococcus faecalis ATCC 29212, with Laked Horse Blood) was 0.081 µg/mL. The MIC90 (Enterococcus faecalis; [9]) was 0.25 µg/mL, the “MIC Range” value (Enterococcus faecalis; [9]) was 0.03 to 0.25 µg/mL and the MIC90 (Bacteroides fragilis) was over 16 µg/mL. The MIC90 (Prevotella spp.) was over 16 µg/mL, the MIC (Haemophilus influenzae; Haemophilus influenzae (Rd1 KW20) ATCC 51907) was 2.5 µg/mL and the MIC (Haemophilus influenzae; Haemophilus influenzae ATCC 49247) was 1 µg/mL. For the same compound, the MIC (Haemophilus influenzae; Haemophilus influenzae Rd0894 (AcrA-)) was 0.14 µg/mL, the MIC90 (Haemophilus influenzae; [10]) was 2 µg/mL and the “MIC Range” value (Haemophilus influenzae; [10]) was 0.25 to 8 µg/mL. The MIC (Mycobacterium avium; M. avium 3404.4) was 0.94 µg/mL, the MIC (Mycobacterium avium; M. avium Far) was 0.94 µg/mL and the MIC (Mycobacterium avium; Mycobacterium avium 103) was 0.47 µg/mL. The MIC90 (Clostridium difficile; Clostridioides difficile, Clostridium difficile, 16 isolates tested) was 1 µg/mL, the MIC (Clostridium difficile; Clostridium difficile ATCC BAA-1382) was 1 µg/mL and the “MIC Range” value (Clostridium difficile; Clostridium difficile, 16 isolates tested) was 0.5 to 16 µg/mL. For the same compound, the MIC (N. asteroids) was 8 µg/mL, the MIC90 (Clostridium perfringens) was 0.5 µg/mL and the MIC90 (Enterococcus faecium; Enterococcus faecium) was 0.5 µg/mL. The MIC (Enterococcus faecium; Enterococcus faecium ATCC 49624, Protocol 1) was 0.25 µg/mL, the MIC (Enterococcus faecium; Enterococcus faecium ATCC 49624 with Laked Horse Blood, Protocol 1) was 0.39 µg/mL and the “MIC Range” value (Enterococcus faecium; Enterococcus faecium, 33 isolates tested, Protocol 1) was 0.12 to 0.5 µg/mL. It also gave an MIC90 [4] of over 16 µg/mL, an MIC (N. nova) of 8 µg/mL and an MIC (Bacillus subtilis; Bacillus subtilis (168) ATCC 6051) of over 8 µg/mL. For the same compound, the MIC (Bacillus subtilis; Bacillus subtilis ATCC 6638) was over 8 µg/mL, the MIC90 (Klebsiella pneumoniae) was over 8 µg/mL and the MIC90 (Acinetobacter baumannii) was over 8 µg/mL. For the same compound, the MIC (Nocardia caviae) was 2 µg/mL.
